Measurements: BindingDB's records for doi:10.1021/jm0700924 (Astex Therapeutics, 2007)
pIC50: −log10 of the molar value.

Tests used:
[1] = target: cAMP-dependent protein kinase catalytic subunit alpha (Bos taurus, UniProt P00517); assay: PKA In Vitro Enzyme Assay; details: pH 7.2; 22 °C
[2] = target: RAC-beta serine/threonine-protein kinase (Homo sapiens, UniProt P31751); assay: PKB In Vitro Enzyme Assay; details: pH 7.2; 22 °C
Chain of RAC-beta serine/threonine-protein kinase (P31751 whole entry): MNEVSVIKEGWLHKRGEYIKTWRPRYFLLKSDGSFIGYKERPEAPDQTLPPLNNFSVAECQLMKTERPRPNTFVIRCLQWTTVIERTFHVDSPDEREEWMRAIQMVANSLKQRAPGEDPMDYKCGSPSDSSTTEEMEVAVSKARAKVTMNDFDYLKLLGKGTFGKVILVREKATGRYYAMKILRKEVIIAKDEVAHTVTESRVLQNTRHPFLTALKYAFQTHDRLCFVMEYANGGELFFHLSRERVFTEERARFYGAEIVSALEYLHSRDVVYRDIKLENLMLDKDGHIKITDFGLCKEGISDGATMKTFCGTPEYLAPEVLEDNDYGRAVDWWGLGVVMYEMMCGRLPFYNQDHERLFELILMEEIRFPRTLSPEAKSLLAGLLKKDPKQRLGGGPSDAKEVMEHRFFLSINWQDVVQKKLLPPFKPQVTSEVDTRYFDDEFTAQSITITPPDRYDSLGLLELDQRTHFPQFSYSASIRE

CNCC(c1ccc(Cl)cc1)c1ccc(-c2ncnc3nc[nH]c23)cc1 (configuration not stated) [[2-(4-chlorophenyl)-2-[4-(9H-purin-6-yl)phenyl]ethyl](methyl)amine]
pIC50 [1]: 7.82
pIC50 [2]: 8.00
